In PMC12274840 (The Journal of Biological Chemistry, 2025):
≈ marks a conversion by molar mass, not a printed value. Read-outs that look alike come from different tables or passages of the source.

Experiments:
[1] = tested on: E. coli KA797 cells carrying pUK21 vector without the β-lactamase gene; test: microbe, parasite or virus in culture; format: cell-based; conditions: Escherichia coli; antibiotic alone; pUK21 without β-lactamase gene; read-out: MIC
[2] = tested on: E. coli KA797 cells carrying pUK21 with CTX-M-14 WT (Tat); test: microbe, parasite or virus in culture; format: cell-based; conditions: Escherichia coli, antibiotic alone
[3] = tested on: E. coli KA797 cells carrying BlaC position 105 library; format: cell-based, Escherichia coli; conditions: carbenicillin; for Fi CAR AVG: average of replicates
[4] = tested on: E. coli KA797 cells carrying CTX-M-14 position 105 library; format: cell-based
[5] = tested on: E. coli KA797 cells carrying KPC-2 position 105 library; format: cell-based; conditions: selection with labelled antibiotic

With `CC1(C)S[C@@H]2[C@H](NC(=O)C(C(=O)O)c3ccccc3)C(=O)N2[C@H]1C(=O)O` (stereo partly shown) [carbenicillin] the MIC [1] was 10 µg/mL (≈ 0.0264 mM), the MIC [2] was 16000 µg/mL (≈ 42.3 mM) and the “Fi CAR AVG” value ([3]; AA 105 Ala) was -0.273. For the same compound, the “Fi CAR 1” value ([3]; AA 105 Ala, replicate 1) was -0.487, the “Fi CAR 3” value ([3]; AA 105 Ala, replicate 3) was -0.060 and the “Fi CAR AVG” value ([3]; AA 105 Arg) was 0.354. The “Fi CAR 1” value ([3]; AA 105 Arg, replicate 1) was -0.038, the “Fi CAR 2” value ([3]; AA 105 Arg, replicate 2) was 0.623 and the “Fi CAR 3” value ([3]; AA 105 Arg, replicate 3) was 0.477. The “Fi CAR AVG” value ([3]; AA 105 Asn) was 0.070, the “Fi CAR 1” value ([3]; AA 105 Asn, replicate 1) was 0.359 and the “Fi CAR 2” value ([3]; AA 105 Asn, replicate 2) was -0.104. For the same compound, the “Fi CAR 3” value ([3]; AA 105 Asn, replicate 3) was -0.045, the “Fi CAR AVG” value ([3]; AA 105 Asp) was 0.382 and the “Fi CAR 1” value ([3]; AA 105 Asp, replicate 1) was 0.054. For the same compound, the “Fi CAR 2” value ([3]; AA 105 Asp, replicate 2) was 0.201, the “Fi CAR 3” value ([3]; AA 105 Asp, replicate 3) was 0.891 and the “Significance (Fi CAR AVG)” value ([3]; AA 105 Cys) was “+”. The “Fi CAR AVG” value ([3]; AA 105 Cys) was 0.765, the “Fi CAR 1” value ([3]; AA 105 Cys, replicate 1) was 0.616 and the “Fi CAR 2” value ([3]; AA 105 Cys, replicate 2) was 0.636. The “Fi CAR 3” value ([3]; AA 105 Cys, replicate 3) was 1.043, the “Significance (Fi CAR AVG)” value ([3]; AA 105 Gln) was “+” and the “Fi CAR AVG” value ([3]; AA 105 Gln) was 1.328. The “Fi CAR 1” value ([3]; AA 105 Gln, replicate 1) was 1.419, the “Fi CAR 2” value ([3]; AA 105 Gln, replicate 2) was 1.237 and the “Fi CAR AVG” value ([3]; AA 105 Glu) was 0.421. The “Fi CAR 1” value ([3]; AA 105 Glu, replicate 1) was 1.372, the “Fi CAR 2” value ([3]; AA 105 Glu, replicate 2) was -0.419 and the “Fi CAR 3” value ([3]; AA 105 Glu, replicate 3) was 0.311. For the same compound, the “Significance (Fi CAR AVG)” value ([3]; AA 105 Gly) was “-”, the “Fi CAR AVG” value ([3]; AA 105 Gly) was -0.444 and the “Fi CAR 1” value ([3]; AA 105 Gly, replicate 1) was -0.596. The “Fi CAR 2” value ([3]; AA 105 Gly, replicate 2) was -0.209, the “Fi CAR 3” value ([3]; AA 105 Gly, replicate 3) was -0.526 and the “Significance (Fi CAR AVG)” value ([3]; AA 105 His) was “+”. The “Fi CAR AVG” value ([3]; AA 105 His) was 2.514, the “Fi CAR 1” value ([3]; AA 105 His, replicate 1) was 2.622 and the “Fi CAR 2” value ([3]; AA 105 His, replicate 2) was 2.393. The “Fi CAR 3” value ([3]; AA 105 His, replicate 3) was 2.527, the “Fi CAR AVG” value ([3]; AA 105 Ile (WT)) was 0.000 and the “Fi CAR 1” value ([3]; AA 105 Ile (WT), replicate 1) was 0.000. The “Fi CAR 2” value ([3]; AA 105 Ile (WT), replicate 2) was 0.000, the “Fi CAR 3” value ([3]; AA 105 Ile (WT), replicate 3) was 0.000 and the “Significance (Fi CAR AVG)” value ([3]; AA 105 Leu) was “+”. For the same compound, the “Fi CAR AVG” value ([3]; AA 105 Leu) was 0.730, the “Fi CAR 1” value ([3]; AA 105 Leu, replicate 1) was 1.223 and the “Fi CAR 2” value ([3]; AA 105 Leu, replicate 2) was 0.445. For the same compound, the “Fi CAR 3” value ([3]; AA 105 Leu, replicate 3) was 0.522, the “Fi CAR AVG” value ([3]; AA 105 Met) was 0.034 and the “Fi CAR 1” value ([3]; AA 105 Met, replicate 1) was 0.791. For the same compound, the “Fi CAR 3” value ([3]; AA 105 Met, replicate 3) was -0.722, the “Significance (Fi CAR AVG)” value ([3]; AA 105 Phe) was “+” and the “Fi CAR AVG” value ([3]; AA 105 Phe) was 3.398. For the same compound, the “Fi CAR 1” value ([3]; AA 105 Phe, replicate 1) was 3.349, the “Fi CAR 2” value ([3]; AA 105 Phe, replicate 2) was 3.354 and the “Fi CAR 3” value ([3]; AA 105 Phe, replicate 3) was 3.492. The “Significance (Fi CAR AVG)” value ([3]; AA 105 Ser) was “+”, the “Fi CAR AVG” value ([3]; AA 105 Ser) was 0.539 and the “Fi CAR 1” value ([3]; AA 105 Ser, replicate 1) was 0.311. For the same compound, the “Fi CAR 2” value ([3]; AA 105 Ser, replicate 2) was 0.896, the “Fi CAR 3” value ([3]; AA 105 Ser, replicate 3) was 0.410 and the “Fi CAR AVG” value ([3]; AA 105 Thr) was -0.255. For the same compound, the “Fi CAR 2” value ([3]; AA 105 Thr, replicate 2) was -0.487, the “Fi CAR 3” value ([3]; AA 105 Thr, replicate 3) was -0.023 and the “Significance (Fi CAR AVG)” value ([3]; AA 105 Trp) was “+”. The “Fi CAR AVG” value ([3]; AA 105 Trp) was 3.306, the “Fi CAR 1” value ([3]; AA 105 Trp, replicate 1) was 3.226 and the “Fi CAR 2” value ([3]; AA 105 Trp, replicate 2) was 3.199. The “Fi CAR 3” value ([3]; AA 105 Trp, replicate 3) was 3.493, the “Significance (Fi CAR AVG)” value ([3]; AA 105 Tyr) was “+” and the “Fi CAR AVG” value ([3]; AA 105 Tyr) was 3.672. The “Fi CAR 1” value ([3]; AA 105 Tyr, replicate 1) was 3.556, the “Fi CAR 2” value ([3]; AA 105 Tyr, replicate 2) was 3.582 and the “Fi CAR 3” value ([3]; AA 105 Tyr, replicate 3) was 3.878. The “Fi CAR AVG” value ([3]; AA 105 Val) was -0.016, the “Fi CAR 1” value ([3]; AA 105 Val, replicate 1) was 0.268 and the “Fi CAR 2” value ([3]; AA 105 Val, replicate 2) was 0.226. For the same compound, the “Fi CAR 3” value ([3]; AA 105 Val, replicate 3) was -0.543, the “WT abs Fi 1” value ([3]; WT (Ile 105) absolute fitness, replicate 1) was -1.491 and the “WT abs Fi 2” value ([3]; WT (Ile 105) absolute fitness, replicate 2) was -1.775. The “WT abs Fi 3” value ([3]; WT (Ile 105) absolute fitness, replicate 3) was -2.001, the “Significance of average fitness” value ([4]; CTX-M-14 AA 105 Ala) was “-” and the “Significance of average fitness” value ([4]; CTX-M-14 AA 105 Arg) was “-”. The “Significance of average fitness” value ([4]; CTX-M-14 AA 105 Asn) was “-”, the “Significance of average fitness” value ([4]; CTX-M-14 AA 105 Asp) was “-” and the “Significance of average fitness” value ([4]; CTX-M-14 AA 105 Cys) was “-”. The “Significance of average fitness” value ([4]; CTX-M-14 AA 105 Gln) was “-”, the “Significance of average fitness” value ([4]; CTX-M-14 AA 105 Glu) was “-” and the “Significance of average fitness” value ([4]; CTX-M-14 AA 105 Gly) was “-”. The “Significance of average fitness” value ([4]; CTX-M-14 AA 105 His) was “-”, the “Significance of average fitness” value ([4]; CTX-M-14 AA 105 Ile) was “-” and the “Significance of average fitness” value ([4]; CTX-M-14 AA 105 Leu) was “-”. The “Significance of average fitness” value ([4]; CTX-M-14 AA 105 Lys) was “-”, the “Significance of average fitness” value ([4]; CTX-M-14 AA 105 Met) was “-” and the “Significance of average fitness” value ([4]; CTX-M-14 AA 105 Pro) was “-”. The “Significance of average fitness” value ([4]; CTX-M-14 AA 105 Ser) was “-”, the “Significance of average fitness” value ([4]; CTX-M-14 AA 105 Thr) was “-” and the “Significance of average fitness” value ([4]; CTX-M-14 AA 105 Val) was “-”. The “WT abs Fi 1 (absolute fitness of wild type, Replicate 1)” value ([4]; CTX-M-14 WT (Tyr 105)) was 0.706, the “Fi AVG (average fitness of replicates)” value ([5]; KPC-2 AA 105 = Ala) was -1.895 and the “Fi AVG (average fitness of replicates)” value ([5]; KPC-2 AA 105 = Arg) was -0.930. The “Significance of average fitness” value ([5]; KPC-2 AA 105 = Arg) was “-”, the “Fi AVG (average fitness of replicates)” value ([5]; KPC-2 AA 105 = Asn) was -1.475 and the “Fi AVG (average fitness of replicates)” value ([5]; KPC-2 AA 105 = Asp) was -1.100. For the same compound, the “Significance of average fitness” value ([5]; KPC-2 AA 105 = Asp) was “-”, the “Fi AVG (average fitness of replicates)” value ([5]; KPC-2 AA 105 = Cys) was -1.311 and the “Significance of average fitness” value ([5]; KPC-2 AA 105 = Cys) was “-”. The “Fi AVG (average fitness of replicates)” value ([5]; KPC-2 AA 105 = Gln) was -2.037, the “Significance of average fitness” value ([5]; KPC-2 AA 105 = Gln) was “-” and the “Fi AVG (average fitness of replicates)” value ([5]; KPC-2 AA 105 = Glu) was -1.844. For the same compound, the “Fi AVG (average fitness of replicates)” value ([5]; KPC-2 AA 105 = Gly) was -1.656, the “Significance of average fitness” value ([5]; KPC-2 AA 105 = Gly) was “-” and the “Fi AVG (average fitness of replicates)” value ([5]; KPC-2 AA 105 = His) was 0.833. For the same compound, the “Significance of average fitness” value ([5]; KPC-2 AA 105 = His) was “+”, the “Fi AVG (average fitness of replicates)” value ([5]; KPC-2 AA 105 = Ile) was -0.975 and the “Fi AVG (average fitness of replicates)” value ([5]; KPC-2 AA 105 = Leu) was -1.769. For the same compound, the “Significance of average fitness” value ([5]; KPC-2 AA 105 = Leu) was “-”, the “Fi AVG (average fitness of replicates)” value ([5]; KPC-2 AA 105 = Met) was -2.969 and the “Fi AVG (average fitness of replicates)” value ([5]; KPC-2 AA 105 = Phe) was -1.337. For the same compound, the “Significance of average fitness” value ([5]; KPC-2 AA 105 = Phe) was “-”, the “Fi AVG (average fitness of replicates)” value ([5]; KPC-2 AA 105 = Ser) was -2.334 and the “Significance of average fitness” value ([5]; KPC-2 AA 105 = Ser) was “-”. For the same compound, the “Fi AVG (average fitness of replicates)” value ([5]; KPC-2 AA 105 = Thr) was -0.740, the “Significance of average fitness” value ([5]; KPC-2 AA 105 = Thr) was “-” and the “Fi AVG (average fitness of replicates)” value ([5]; KPC-2 AA 105 = Trp (WT, reference)) was 0.000. The “Fi AVG (average fitness of replicates)” value ([5]; KPC-2 AA 105 = Tyr) was -1.021, the “Significance of average fitness” value ([5]; KPC-2 AA 105 = Tyr) was “-” and the “Fi AVG (average fitness of replicates)” value ([5]; KPC-2 AA 105 = Val) was -2.800. For the same compound, the “Significance of average fitness” value ([5]; KPC-2 AA 105 = Val) was “-”, the “WT abs Fi 1 (absolute fitness)” value ([5]; KPC-2 WT (Trp 105), replicate 1) was 0.136 and the “WT abs Fi 2 (absolute fitness)” value ([5]; KPC-2 WT (Trp 105), replicate 2) was -0.163. For the same compound, the “WT abs Fi 3 (absolute fitness)” value ([5]; KPC-2 WT (Trp 105), replicate 3) was 0.473.
